What was measured:
[1] = test system: C. albicans; assay: Antifungal activity, inhibition zone approach; type: cell-based, Candida albicans; conditions: for C. albicans Diameter of inhibition zone (mm): Fungi; for C. albicans % Activity index: ketoconazole = 100; for antimicrobial activity with C. albicans, in words: authors' grading of Table 2 values, key not given
[2] = test system: MCF-7; assay: Anti-proliferative activity, SRB colorimetric assay; type: cell-based; conditions: for IC50: Homo sapiens, MCF7, MCF-7 cancer cell line, SRB assay, read-out: Cell lines (IC50 μM) MCF-7; for anti-proliferative activity against MCF-7, in words: authors' grading of Table 1 values, key not given
[3] = test system: B. subtilis; assay: Antibacterial activity, inhibition zone approach; type: cell-based, Bacillus subtilis; conditions: for B. subtilis Diameter of inhibition zone (mm): Gram-positive bacteria; for B. subtilis % Activity index: gentamicin = 100; for antimicrobial activity with B. subtilis, in words: authors' grading of Table 2 values, key not given
[4] = test system: P. aeuroginosa; assay: Antibacterial activity, inhibition zone approach; type: cell-based, Pseudomonas aeuroginosa; conditions: for P. aeuroginosa Diameter of inhibition zone (mm): Gram-negative bacteria; for P. aeuroginosa % Activity index: gentamicin = 100; for antimicrobial activity with P. aeuroginosa, in words: authors' grading of Table 2 values, key not given
[5] = test system: A. flavus; assay: Antifungal activity, inhibition zone approach; type: cell-based, Aspergillus flavus; conditions: for A. flavus Diameter of inhibition zone (mm): Fungi; for A. flavus % Activity index: ketoconazole = 100; for antimicrobial activity with A. flavus, in words: authors' grading of Table 2 values, key not given
[6] = test system: HepG-2; assay: Anti-proliferative activity, SRB colorimetric assay; type: cell-based; conditions: for IC50: Homo sapiens, HepG2, HepG-2 cancer cell line, SRB assay, read-out: Cell lines (IC50 μM) HepG-2; for anti-proliferative activity against HepG-2, in words: authors' grading of Table 1 values, key not given
[7] = test system: S. aureus; assay: Antibacterial activity, inhibition zone approach; type: cell-based, Staphylococcus aureus; conditions: for S. aureus Diameter of inhibition zone (mm): Gram-positive bacteria; for S. aureus % Activity index: gentamicin = 100; for antimicrobial activity with S. aureus, in words: authors' grading of Table 2 values, key not given
[8] = test system: E. coli; assay: Antibacterial activity, inhibition zone approach; type: cell-based, Escherichia coli; conditions: for E. coli Diameter of inhibition zone (mm): Gram-negative bacteria; for E. coli % Activity index: gentamicin = 100; for antimicrobial activity with E. coli, in words: authors' grading of Table 2 values, key not given

SMILES | C. albicans Diameter of inhibition zone (mm) [1] [mm] | C. albicans % Activity index [1] [%] | IC50 [2] [µM] | anti-proliferative activity against MCF-7, in words [2] | B. subtilis Diameter of inhibition zone (mm) [3] [mm] | B. subtilis % Activity index [3] [%] | P. aeuroginosa Diameter of inhibition zone (mm) [4] [mm] | P. aeuroginosa % Activity index [4] [%] | A. flavus Diameter of inhibition zone (mm) [5] [mm] | A. flavus % Activity index [5] [%] | IC50 [6] [µM] | anti-proliferative activity against HepG-2, in words [6] | S. aureus Diameter of inhibition zone (mm) [7] [mm] | S. aureus % Activity index [7] [%] | E. coli Diameter of inhibition zone (mm) [8] [mm] | E. coli % Activity index [8] [%] | melting point [°C] | antimicrobial activity with C. albicans, in words [1] | antimicrobial activity with B. subtilis, in words [3] | antimicrobial activity with P. aeuroginosa, in words [4] | other results
CC(=O)c1c(-c2cccs2)cc(-c2ccc(O)cc2)[nH]c1=O [3a, 3-Acetyl-6-(4-hydroxyphenyl)-4-(thiophen-2-yl)pyridin-2(1H)-one] | 11 | 39.3 | 48.4 ± 2.7 | moderate | 9 | 40.9 | 6 | 31.6 | 10 | 38.5 | 53.2 ± 3.1 | moderate | 5 | 27.8 | 4 | 19.0 | 220 |  |  |  | 
CCOC(=O)c1c(-c2cccs2)cc(-c2ccc(O)cc2)[nH]c1=O [4a, Ethyl 6-(4-hydroxyphenyl)-2-oxo-4-(thiophen-2-yl)-1,2-dihydropyridine-3-carboxylate] | 13 | 46.4 | 41.2 ± 2.4 | moderate | 10 | 45.4 | 8 | 42.1 | 11 | 42.3 | 44.5 ± 2.6 | moderate | 6 | 33.3 | 5 | 23.8 | 125 |  |  |  | 
N#Cc1c(-c2cccs2)cc(-c2ccc(O)cc2)nc1O [5a, 2-hydroxy-6-(4-hydroxyphenyl)-4-(thiophen-2-yl)nicotinonitrile] | 14 | 50.0 | 38.4 ± 2.5 | moderate | 10 | 45.4 | 10 | 52.6 | 8 | 30.8 | 43 ± 2.5 | moderate | 6 | 33.3 | 5 | 23.8 | 200 |  |  |  | 
CC(=O)N1N=C(c2ccc(Cl)c(Cl)c2)CC1c1cccs1 (stereo not shown) [8b, 1-(3-(3,4-dichlorophenyl)-5-(thiophen-2-yl)-4,5-dihydro-1H-pyrazol-1-yl)ethan-1-one] | 9 | 32.1 | 72.6 ± 3.9 |  | 7 | 31.8 | 4 | 21.0 | 5 | 19.2 | 74.3 ± 3.5 |  | 3 | 16.7 |  |  | 160 |  |  |  | 
Clc1ccc(C2=NN(c3ccccc3)C(c3cccs3)C2)cc1Cl (stereo not shown) [9b, 3-(3,4-dichlorophenyl)-1-phenyl-5-(thiophen-2-yl)-4,5-dihydro-1H-pyrazole] | 8 | 28.6 | 67.3 ± 3.7 |  | 6 | 27.3 |  |  | 3 | 11.5 | 48.1 ± 2.7 |  |  |  |  |  | 130 |  |  |  | 
NC(=S)n1nc(-c2ccc(O)cc2)cc1-c1cccs1 [10a, 3-(4-hydroxyphenyl)-5-(thiophen-2-yl)-1H-pyrazole-1-carbothioamide] | 13 | 46.4 | 23.7 ± 1.7 | moderate | 13 | 59.1 | 12 | 63.1 | 11 | 42.3 | 39.1 ± 2.4 | moderate | 9 | 50.0 | 8 | 38.1 | 195 to 197 | moderate | moderate | moderate | antimicrobial activity with A. flavus, in words [5]: moderate; antimicrobial activity with S. aureus, in words [7]: moderate; antimicrobial activity with E. coli, in words [8]: moderate
O=C(CNC(=S)n1nc(-c2ccc(Cl)c(Cl)c2)cc1-c1cccs1)c1ccccc1 [12b, 3-(3,4-dichlorophenyl)-N-(2-oxo-2-phenylethyl)-5-(thiophen-2-yl)-1H-pyrazole-1-carbothioamide] | 15 | 53.6 | 36 ± 2.3 |  | 12 | 54.5 | 8 | 42.1 | 10 | 38.5 | 29.2 ± 2.1 |  | 7 | 38.9 | 5 | 23.8 | 160 |  |  |  | 
Oc1ccc(-c2cc(-c3cccs3)nc(/N=C/c3ccccc3O)n2)cc1 [13a, (E)-2-(((4-(4-hydroxyphenyl)-6-(thiophen-2-yl)pyrimidin-2-yl)imino)methyl)phenol] | 21 | 75.0 | 42.8 ± 2.6 |  | 18 | 81.8 | 15 | 78.9 | 16 | 61.5 | 34.8 ± 2.3 |  | 14 | 77.8 | 13 | 61.9 | 133 to 135 | very strong | very strong | very strong | antimicrobial activity with A. flavus, in words [5]: very strong; antimicrobial activity with S. aureus, in words [7]: very strong; antimicrobial activity with E. coli, in words [8]: very strong
NS(=O)(=O)c1ccc(NC(=O)CN2N=C(c3ccc(O)cc3)CC2c2cccs2)cc1 (stereo not shown) [16a, 2-(3-(4-hydroxyphenyl)-5-(thiophen-2-yl)-4,5-dihydro-1H-pyrazol-1-yl)-N-(4-sulfamoylphenyl)acetamide] | 15 | 53.6 | 29.1 ± 2 | moderate | 11 | 50.0 | 11 | 57.9 | 12 | 46.1 | 34.5 ± 2.2 | moderate | 8 | 44.4 | 7 | 33.3 | 158 to 160 | moderate | moderate | moderate | antimicrobial activity with A. flavus, in words [5]: moderate; antimicrobial activity with S. aureus, in words [7]: moderate; antimicrobial activity with E. coli, in words [8]: weak
CCOC(=O)CSC(=S)N1N=C(c2ccc(O)cc2)CC1c1cccs1 (stereo not shown) [17a, Ethyl 2-((3-(4-hydroxyphenyl)-5-(thiophen-2-yl)-4,5-dihydro-1H-pyrazole-1-carbonothioyl)thio)acetate] | 10 | 35.7 | 36.9 ± 2.2 | moderate | 11 | 50.0 | 9 | 47.4 | 8 | 30.8 | 62.4 ± 3.3 | weak | 6 | 33.3 | 7 | 33.3 | 200 | weak | weak | weak | antimicrobial activity with A. flavus, in words [5]: weak; antimicrobial activity with S. aureus, in words [7]: weak; antimicrobial activity with E. coli, in words [8]: weak
